In patent US10787446B2 (GENENTECH, INC., priority 2015, dated 2020):
Counter-ions that a name gives are not always drawn.

Target: T1, hNav1.7 and the β1 subunit (Homo sapiens, UniProt Q15858)
T1 construct: expressed in transfected cells
Assay: Tritiated compound competitive binding to membranes from cells heterologously expressing hNav1.7 and the β1 subunit (LBA)
Settings: competition with 100 pM [3H]compound, 18 h, room temperature; IC50 by 4 parameter logistic model
Procedure: Example 235 Tritiated Compound Binding to Membranes Isolated from Cells that Heterologously Express hNav1.7 and the β1 Subunit
Preparation of membranes containing recombinantly expressed sodium channels: Frozen recombinant cell pellets were thawed on ice and diluted to 4 times the cell pellet weight with ice cold 50 mM Tris HCl, pH 7.4 buffer. The cell suspensions were homogenized on ice using a motorized glass dounce homogeniser. Homogenates were further diluted 8.4 times with ice cold 50 mM Tris HCl, pH 7.4 buffer and then centrifuged at 200×g at 4° C. for 15 min. The supernatants were collected and centrifuged at 10000×g at 4° C. for 50 min. The pellets were then re-suspended in 100 mM NaCl, 20 mM Tris HCl, pH 7.4 buffer containing 1% v/v protease inhibitors (Calbiochem) and re-homogenized on ice. The homogenized membranes were then processed through a syringe equipped with a 26 gauge needle. Protein concentrations were determined by Bradford Assay and the membranes were stored at −80° C.
Radioligand Binding Studies:
Saturation experiments. A competitive NaV1.7 inhibitor having a methyl group was tritiated. Three tritiums were incorporated in place of methyl hydrogens to generate [^3H]compound. Binding of this radioligand was performed in 5 mL borosilicate glass test tubes at room temperature. Binding was initiated by adding membranes to increasing concentrations of [^3H]compound in 100 mM NaCl, 20 mM Tris HCl, pH 7.4 buffer containing 0.01% w/v bovine serum albumin (BSA) for 18 h. […] After 18 h, the reactants were filtered through GF/C glass fiber filters presoaked in 0.5% w/v polyethylene imine. […] [^3H]compound bound to filters was quantified by liquid scintillation counting.
Competitive Binding Experiments:
Binding reactions were performed in 96-well polypropylene plates at room temperature for 18 h. In 360 μL, membranes were incubated with 100 pM [^3H]compound and increasing concentrations of Test Compound. […] Reactions were transferred and filtered through 96-well glass fiber/C filter plates presoaked with 0.5% polyethylene imine. The filtered reactions were washed 5 times with 200 μL ice cold buffer containing 0.25% BSA. Bound radioactivity was determined by liquid scintillation counting.
Data Analysis: For saturation experiments, non-specific binding was subtracted from total binding to provide specific binding and these values were recalculated in terms of pmol ligand bound per mg protein. Saturation curves were constructed and dissociation constants were calculated using the single site ligand binding model: Beq=(Bmax*X)/(X+Kd), where Beq is the amount of ligand bound at equilibrium, Bmax is the maximum receptor density, Kd is the dissociation constant for the ligand, and X is the free ligand concentration. For competition studies percent inhibition was determined and IC50 values were calculated using a 4 parameter logistic model (% inhibition=(A+((B−A)/(1+((x/C)^D)))) using XLfit, where A and B are the maximal and minimum inhibition respectively, C is the IC50 concentration and D is the (Hill) slope.

T1 sequence (Q15858 whole entry): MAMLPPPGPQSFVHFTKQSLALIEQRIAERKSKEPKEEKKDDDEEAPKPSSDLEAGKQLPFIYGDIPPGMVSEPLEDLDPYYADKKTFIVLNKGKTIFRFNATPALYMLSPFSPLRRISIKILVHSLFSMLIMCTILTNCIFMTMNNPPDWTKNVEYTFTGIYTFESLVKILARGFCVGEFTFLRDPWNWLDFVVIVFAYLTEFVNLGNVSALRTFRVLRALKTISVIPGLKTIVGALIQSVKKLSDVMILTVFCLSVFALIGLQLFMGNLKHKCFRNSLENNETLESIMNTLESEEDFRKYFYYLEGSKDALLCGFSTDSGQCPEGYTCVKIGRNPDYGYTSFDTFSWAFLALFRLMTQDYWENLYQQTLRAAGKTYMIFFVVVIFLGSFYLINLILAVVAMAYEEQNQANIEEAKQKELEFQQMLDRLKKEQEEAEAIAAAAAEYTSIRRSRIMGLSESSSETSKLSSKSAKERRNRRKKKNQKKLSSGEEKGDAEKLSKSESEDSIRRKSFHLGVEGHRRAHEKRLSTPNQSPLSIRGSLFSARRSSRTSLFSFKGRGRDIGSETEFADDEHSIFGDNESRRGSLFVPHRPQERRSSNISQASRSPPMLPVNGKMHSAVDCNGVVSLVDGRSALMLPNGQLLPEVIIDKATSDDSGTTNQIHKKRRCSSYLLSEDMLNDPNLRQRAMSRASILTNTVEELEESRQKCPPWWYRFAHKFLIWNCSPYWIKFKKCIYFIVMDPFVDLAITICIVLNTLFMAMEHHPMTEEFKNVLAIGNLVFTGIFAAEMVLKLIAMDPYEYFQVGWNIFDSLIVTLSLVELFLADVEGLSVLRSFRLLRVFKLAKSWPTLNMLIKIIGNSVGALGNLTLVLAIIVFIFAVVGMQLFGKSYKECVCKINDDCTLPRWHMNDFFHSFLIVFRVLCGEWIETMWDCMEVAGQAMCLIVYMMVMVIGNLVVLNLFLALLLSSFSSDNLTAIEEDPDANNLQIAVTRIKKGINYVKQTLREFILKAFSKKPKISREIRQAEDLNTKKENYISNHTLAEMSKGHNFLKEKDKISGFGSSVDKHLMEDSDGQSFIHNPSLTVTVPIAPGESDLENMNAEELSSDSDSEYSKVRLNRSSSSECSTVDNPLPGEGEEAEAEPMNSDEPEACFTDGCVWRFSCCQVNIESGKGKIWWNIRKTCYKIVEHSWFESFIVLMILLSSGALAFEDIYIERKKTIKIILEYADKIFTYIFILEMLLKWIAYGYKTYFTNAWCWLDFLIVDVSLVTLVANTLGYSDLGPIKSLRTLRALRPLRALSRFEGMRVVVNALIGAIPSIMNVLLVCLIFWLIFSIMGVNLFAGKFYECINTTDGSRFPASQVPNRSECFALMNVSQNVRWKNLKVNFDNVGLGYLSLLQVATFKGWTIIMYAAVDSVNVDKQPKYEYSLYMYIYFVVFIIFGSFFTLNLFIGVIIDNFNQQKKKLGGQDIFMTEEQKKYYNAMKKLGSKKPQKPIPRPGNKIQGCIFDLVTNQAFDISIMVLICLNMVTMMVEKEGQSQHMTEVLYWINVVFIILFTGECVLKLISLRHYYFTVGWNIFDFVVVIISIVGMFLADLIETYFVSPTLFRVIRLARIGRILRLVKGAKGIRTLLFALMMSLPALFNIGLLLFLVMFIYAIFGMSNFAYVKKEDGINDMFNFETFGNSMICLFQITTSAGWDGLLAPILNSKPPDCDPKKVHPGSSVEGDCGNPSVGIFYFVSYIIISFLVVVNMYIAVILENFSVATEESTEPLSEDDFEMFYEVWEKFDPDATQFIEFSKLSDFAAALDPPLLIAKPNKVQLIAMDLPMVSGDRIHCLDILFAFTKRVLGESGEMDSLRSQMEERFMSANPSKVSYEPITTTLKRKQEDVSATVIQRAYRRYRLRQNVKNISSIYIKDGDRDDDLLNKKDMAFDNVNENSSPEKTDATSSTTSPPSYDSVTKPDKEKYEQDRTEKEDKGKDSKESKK
T1 sequence (Q07699 19-218 partner): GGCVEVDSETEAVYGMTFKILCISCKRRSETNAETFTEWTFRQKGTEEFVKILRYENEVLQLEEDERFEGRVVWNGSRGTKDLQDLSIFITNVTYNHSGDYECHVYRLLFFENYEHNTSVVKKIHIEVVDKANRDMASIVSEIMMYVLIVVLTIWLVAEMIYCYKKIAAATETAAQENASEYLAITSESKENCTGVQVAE

| SMILES | Nav1.7 (LBA) [µM] |
| --- | --- |
| O=S(=O)(Nc1ncns1)c1cc(Cl)c(CN2CCCCC2c2ccccc2)cc1F (stereo not shown) [Example 68, 5-chloro-2-fluoro-4-((2-phenylpiperidin-1-yl)methyl)-N-(1,2,4-thiadiazol-5-yl)benzenesulfonamide] | 0.334 |
| O=S(=O)(Nc1ncns1)c1ccc2c(c1)CCC[C@H]2N1CCCC[C@H]1c1ccccc1 (single isomer, unassigned) [Example 53, trifluoroacetic acid salt] | 0.271 |
| O=S(=O)(Nc1ncns1)c1ccc2c(c1)CCC[C@@H]2N1CCCC[C@H]1c1ccccc1 (single isomer, unassigned) [Example 54] | 0.411 |
| O=S(=O)(Nc1ncns1)c1cc(F)c(CN2CCCC[C@H]2c2cn[nH]c2)cc1F (single isomer, unassigned) [Example 25] | 2.24 |
| O=S(=O)(Nc1ncns1)c1cc(F)c(CN2CCC(F)(F)C[C@@H]2c2ccccc2)cc1F (single isomer, unassigned) [Example 33] | 4.16 |
| O=S(=O)(Nc1ncns1)c1ccc2c(c1)OCC[C@@H]2N1CCCC[C@H]1c1ccccc1 (single isomer, unassigned) [Example 37] | 0.0254 |
| CC1(C)CCN(Cc2cc(F)c(S(=O)(=O)Nc3ncns3)cc2F)[C@H](c2ccccc2)C1 (single isomer, unassigned) [Example 2] | 0.288 |
| O=S(=O)(Nc1ncns1)c1cc(F)c(CN2CC[C@@H](F)C[C@H]2c2ccccc2)cc1F (single isomer, unassigned) [Example 28] | 5.98 |
| CC[C@H]1CCCCN1[C@H](C)c1ccc(S(=O)(=O)Nc2ncns2)cc1Cl (racemic) [Example 58, (±)-3-chloro-4-((R)-1-((S)-2-ethylpiperidin-1-yl)ethyl)-N-(1,2,4-thiadiazol-5-yl)benzenesulfonamide] | 5.3 |
| O=S(=O)(Nc1ncns1)c1ccc2c(c1)CCC[C@H]2N1CCCC[C@@H]1c1ccccc1 (single isomer, unassigned) [Example 55] | 0.286 |
| O=S(=O)(Nc1ncns1)c1cc2c(cc1F)[C@@H](N1CCCC[C@H]1c1ccc(F)cc1)CCO2 (racemic) [Example 87, (±)-(S)-6-fluoro-4-((S)-2-(4-fluorophenyl)piperidin-1-yl)-N-(1,2,4-thiadiazol-5-yl)chromane-7-sulfonamide] | 0.00726 |
| O=S(=O)(Nc1cscn1)c1cc2c(cc1F)[C@H](N1CCCC[C@H]1c1ccccc1)CCO2 (single isomer, unassigned) [Example 98] | 1.79 |
| C[C@H]1CC[C@@H](c2ccccc2)N(Cc2cc(F)c(S(=O)(=O)Nc3ncns3)cc2F)C1 (single isomer, unassigned) [Example 21] | 0.672 |
| O=S(=O)(Nc1nccs1)c1cc2c(cc1F)[C@@H](N1CCCC[C@H]1c1ccccc1)CCO2 (single isomer, unassigned) [Example 90] | 0.00862 |
| O=S(=O)(Nc1ncns1)c1ccc2c(c1)CCC2N1CCCCC1c1ccccc1 (single isomer, unassigned) [Example 66, 1-(2-phenylpiperidin-1-yl)-N-(1,2,4-thiadiazol-5-yl)-2,3-dihydro-1H-indene-5-sulfonamide] | 0.597 |

More lines, now with the values ahead:

| Nav1.7 (LBA) [µM] | SMILES |
| --- | --- |
| 0.736 | CC(C)(O)[C@@H]1CCN([C@@H]2CCOc3cc(S(=O)(=O)Nc4ncns4)ccc32)[C@H](c2ccc(F)cc2)C1 (single isomer, unassigned) [Example 137] |
| 0.213 | CC(C)(C)OC(=O)N1CCN([C@@H]2CCOc3cc(S(=O)(=O)Nc4ncns4)ccc32)[C@H](c2ccc(F)cc2)C1 [Example 216, Tert-butyl (R)-4-((R)-7-(N-(1,2,4-thiadiazol-5-yl)sulfamoyl)chroman-4-yl)-3-(4-fluorophenyl)piperazine-1-carboxylate] |
| 0.0181 | N#Cc1cc(S(=O)(=O)Nc2ncns2)ccc1CN1CC[C@@H](C(F)(F)F)C[C@H]1c1ccccc1 [Example 119, 3-Cyano-4-(((2S,4R)-2-phenyl-4-(trifluoromethyl)piperidin-1-yl)methyl)-N-(1,2,4-thiadiazol-5-yl)benzenesulfonamide] |
| 0.0033 | O=S(=O)(Nc1nccs1)c1cc2c(cc1F)[C@@H](N1CC[C@H](C(F)(F)F)C[C@@H]1c1ccn[nH]1)CCO2 [Example 212, (S)-4-((2R,4S)-2-(1H-pyrazol-5-yl)-4-(trifluoromethyl)piperidin-1-yl)-6-fluoro-N-(thiazol-2-yl)chromane-7-sulfonamide] |
| 0.0923 | O=S(=O)(Nc1ncns1)c1cc(F)c(CN2CC[C@@H](OC(F)(F)F)C[C@H]2c2ccccc2)cc1F (single isomer, unassigned) [Example 111] |
| 0.175 | O=S(=O)(Nc1ncns1)c1ccc2c(c1)OCC[C@H]2N1CC[C@](O)(C(F)(F)F)C[C@@H]1c1ccc(F)cc1 [Example 170, (R)-4-((2R,4R)-2-(4-fluorophenyl)-4-hydroxy-4-(trifluoromethyl)piperidin-1-yl)-N-(1,2,4-thiadiazol-5-yl)chroman-7-sulfonamide] |
| 5.5 | O=S(=O)(Nc1ncns1)c1ccc2c(c1)OCC[C@@H]2N1CCC2(CC1)COC2 [Example 153, (S)-4-(2-oxa-7-azaspiro[3.5]nonan-7-yl)-N-(1,2,4-thiadiazol-5-yl)chromane-7-sulfonamide] |
| 0.0117 | O=S(=O)(Nc1ncns1)c1ccc2c(c1)OCC[C@@H]2N1CC[C@H](C(F)(F)F)C[C@@H]1c1ccn[nH]1 (single isomer, unassigned) [Example 145] |
| 0.337 | O=S(=O)(Nc1ncns1)c1cc(F)c(CN2CCC3(CC3)C[C@H]2c2ccccc2)cc1F [Example 110, (S)-2,5-difluoro-4-((5-phenyl-6-azaspiro[2.5]octan-6-yl)methyl)-N-(1,2,4-thiadiazol-5-yl)benzenesulfonamide] |
| 0.00778 | O=S(=O)(Nc1ncns1)c1ccc2c(c1)OCC[C@@H]2N1CCN(CC(F)(F)F)C[C@H]1c1ccc(F)cc1 [Example 219, (S)-4-((R)-2-(4-fluorophenyl)-4-(2,2,2-trifluoroethyl)piperazin-1-yl)-N-(1,2,4-thiadiazol-5-yl)chromane-7-sulfonamide] |
| 0.0109 | N#C[C@H]1CCN([C@H]2CCOc3cc(S(=O)(=O)Nc4ncns4)ccc32)[C@@H](c2ccc(F)cc2)C1 [Example 179, (S)-4-((2R,4S)-4-cyano-2-(4-fluorophenyl)piperidin-1-yl)-N-(1,2,4-thiadiazol-5-yl)chroman-7-sulfonamide] |
| 0.00652 | O=S(=O)(Nc1ncns1)c1ccc2c(c1)OCC[C@@H]2N1CC[C@H](CF)C[C@@H]1c1ccc(F)cc1 [Example 183, (S)-4-((2R,4S)-4-(fluoromethyl)-2-(4-fluorophenyl)piperidin-1-yl)-N-(1,2,4-thiadiazol-5-yl)chroman-7-sulfonamide] |
| 0.0682 | O=S(=O)(Nc1ncns1)c1ccc2c(c1)OCC[C@@H]2N1CC[C@](O)(C(F)(F)F)C[C@@H]1c1ccc(F)cc1 [Example 169, (S)-4-((2R,4R)-2-(4-fluorophenyl)-4-hydroxy-4-(trifluoromethyl)piperidin-1-yl)-N-(1,2,4-thiadiazol-5-yl)chroman-7-sulfonamide] |
| 2.26 | Nc1[nH]ncc1C1CCCCN1Cc1cc(F)c(S(=O)(=O)Nc2ncns2)cc1F (stereo not shown) [Example 118, 4-((2-(5-Amino-1H-pyrazol-4-yl)piperidin-1-yl)methyl)-2,5-difluoro-N-(1,2,4-thiadiazol-5-yl)benzenesulfonamide] |
| 0.109 | CC(C)[C@H]1CCN([C@@H]2CCOc3cc(S(=O)(=O)Nc4ncns4)ccc32)[C@@H](c2ccccc2)C1 (single isomer, unassigned) [Example 130] |
| 4.21 | O=S(=O)(Nc1ncns1)c1cc(F)c(CN2CC[C@H](OC(F)(F)F)C[C@@H]2c2ccccc2)cc1F [Example 112, 2,5-Difluoro-4-(((2R,4S)-2-phenyl-4-(trifluoromethoxy)piperidin-1-yl)methyl)-N-(1,2,4-thiadiazol-5-yl)benzenesulfonamide] |
